Reference: patent US11691972B2, “Compounds for targeted degradation of BRD9” (C4 Therapeutics, Inc., priority 2020, dated 2023)
Read-outs that look alike come from different tables or passages of the source. Each block holds one compound with its values, some of them ahead of it.

Molecular target: T1, BRD9 (Homo sapiens, UniProt Q9H8M2)
T1 sequence (Q9H8M2 1-597): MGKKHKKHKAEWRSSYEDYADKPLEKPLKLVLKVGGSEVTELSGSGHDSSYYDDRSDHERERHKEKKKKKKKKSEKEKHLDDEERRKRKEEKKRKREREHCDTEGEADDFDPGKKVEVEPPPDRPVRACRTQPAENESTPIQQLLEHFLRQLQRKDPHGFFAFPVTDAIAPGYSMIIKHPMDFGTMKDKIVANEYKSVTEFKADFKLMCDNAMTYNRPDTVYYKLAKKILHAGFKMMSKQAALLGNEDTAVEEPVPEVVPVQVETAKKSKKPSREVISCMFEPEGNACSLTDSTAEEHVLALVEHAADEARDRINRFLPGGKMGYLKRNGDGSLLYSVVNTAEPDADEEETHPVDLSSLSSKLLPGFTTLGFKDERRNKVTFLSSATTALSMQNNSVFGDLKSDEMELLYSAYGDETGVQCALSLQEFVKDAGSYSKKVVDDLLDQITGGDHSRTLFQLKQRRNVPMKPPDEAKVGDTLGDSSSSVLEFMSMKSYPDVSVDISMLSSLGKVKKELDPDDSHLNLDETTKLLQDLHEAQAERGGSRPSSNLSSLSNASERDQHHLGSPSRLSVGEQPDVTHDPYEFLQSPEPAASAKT
Test: HiBiT BRD9 degradation assay in 293T.166 (BRD9-HiBiT) cells
Type: cell-based
Design: endogenously expressing BRD9 with HiBiT fusion tag via CRISPR; host or cells: 293T.166 (BRD9-HiBiT), also expressing LgBiT ectopically
Conditions: 293T.166 cells, 2.0 hours, class symbols, read-out: HiBiT-Degradation 293T.166 BRD9 2.0 hours (DC50)
Method in brief: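 293T.166 cells carrying endogenous CRISPR BRD9-HiBiT and expressing LgBiT treated 2 h at 37° C. with compounds, 11-point half-log titration from 10 μM in duplicate. Remaining BRD9 measured as lytic HiBiT luminescence; untreated cells as negative control, no-reagent wells as positive control.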

SMILES: C/C=C/Cn1cc(-c2cc(Cl)c(CN3CCC(N4CCN(c5ccc(NC6CCC(=O)NC6=O)cc5F)CC4)C(F)(F)C3)c(OC)c2)c2ccncc2c1=O (stereo not shown) [Compound 266]
DC50 (Table 2): < 0.1 µM

SMILES: COc1cc(-c2cn(C)c(=O)c3ccccc23)cnc1CN1CCC(N2CCN(c3ccc(NC4CCC(=O)NC4=O)cc3F)CC2)C(F)(F)C1 (stereo not shown) [Compound 261, 3-[4-[4-[3,3-difluoro-1-[[3-methoxy-5-(2-methyl-1-oxo-4-isoquinolyl)-2-pyridyl]methyl]-4-piperidyl]piperazin-1-yl]-3-fluoro-anilino]piperidine-2,6-dione]
DC50 (Table 2): < 0.1 µM

SMILES: COc1cc(-c2cn(C)c(=O)c(C)c2C)cc(OC)c1CN1C2CCC1CN(C(=O)CC1CCN(c3ccc(NC4CCC(=O)NC4=O)nc3)CC1)C2 (stereo not shown) [Compound 272]
DC50 (Table 2): < 0.1 µM

SMILES: COc1cc(-c2cn(C)c(=O)c(C)c2C)cc(F)c1CN1CCC(C2CCN(c3ccc(NC4CCC(=O)NC4=O)cc3C(F)(F)F)CC2)CC1 (stereo not shown) [Compound 86]
DC50 (Table 1): < 0.1 µM

SMILES: COc1cc(-c2cn(C)c(=O)c3[nH]ncc23)cc(OC)c1CNc1ccc(CC2CCN(c3ccc(NC4CCC(=O)NC4=O)cc3)CC2)cc1 (stereo not shown) [Compound 205, 3-[4-[4-[[4-[[2,6-dimethoxy-4-(6-methyl-7-oxo-1H-pyrazolo[3,4-c]pyridin-4-yl)phenyl]methylamino]phenyl]methyl]-1-piperidyl]anilino]piperidine-2,6-dione]
DC50 (Table 1): < 0.1 µM

SMILES: COc1cc(-c2cn(C)c(=O)c3[nH]ncc23)cc(F)c1CN1CCC(O)(CC(=O)N2CCC(c3ccc(NC4CCC(=O)NC4=O)cc3F)CC2)CC1 (stereo not shown) [Compound 154]
DC50 (Table 1): < 0.1 µM

SMILES: COc1cc(-c2cn(C)c(=O)c3[nH]ncc23)cc(OC)c1CN1C[C@@H]2C[C@H]1CN2C(=O)CN1CCC(c2ccc(NC3CCC(=O)NC3=O)cc2)CC1 (stereo partly shown) [Compound 13]
DC50 (Table 1): < 0.1 µM

SMILES: COc1cc(-c2cn(C)c(=O)c3cnccc23)cc(OC)c1C(=O)N1CCC(N2CCN(c3ccc(NC4CCC(=O)NC4=O)cc3F)CC2)C(F)(F)C1 (stereo not shown) [Compound 225]
DC50 (Table 1): < 0.1 µM

SMILES: COc1cc(-c2cn(C)c(=O)c3[nH]ncc23)cc(F)c1CN1CCN(C(=O)CN2CCC(c3ccc(NC4CCC(=O)NC4=O)cc3Cl)CC2)CC1 (stereo not shown) [Compound 24]
DC50 (Table 1): < 0.1 µM

SMILES: COc1cc(-c2cn(C)c(=O)c3[nH]ncc23)cc(OC)c1CN1CCN(C(=O)CN2CC(c3ccc(NC4CCC(=O)NC4=O)cc3)C2)CC1 (stereo not shown) [Compound 32]
DC50 (Table 1): < 0.1 µM

SMILES: COc1cc(-c2cn(C)c(=O)c3[nH]ncc23)cc(Cl)c1CN1CCN(C(=O)CC2CCN(c3ccc(NC4CCC(=O)NC4=O)cc3C(F)(F)F)CC2)CC1 (stereo not shown) [Compound 53]
DC50 (Table 1): < 0.1 µM

SMILES: Cc1c(-c2ccc(CN3CCC(C4CCN(c5ccc(NC6CCC(=O)NC6=O)nc5)CC4)CC3)c(OC(F)(F)F)c2)cn(C)c(=O)c1C (stereo not shown) [Compound 90]
DC50 (Table 1): < 0.1 µM

SMILES: COc1cc(-c2cn(C)c(=O)c(C)c2C)cc(Cl)c1CN1CCC(N2CCN(c3ccc(NC4CCC(=O)NC4=O)nc3)CC2)C(F)(F)C1 (stereo not shown) [Compound 196]
DC50 (Table 1): < 0.1 µM

SMILES: COc1cc(-c2cn(C)c(=O)c3cnccc23)cc(Cl)c1CN1CCC(N2CCN(c3ccc(N(C)C4CCC(=O)NC4=O)cc3F)CC2)C(F)(F)C1 (stereo not shown) [Compound 254, 3-[4-[4-[1-[[2-chloro-6-methoxy-4-(2-methyl-1-oxo-2,7-naphthyridin-4-yl)phenyl]methyl]-3,3-difluoro-4-piperidyl]piperazin-1-yl]-3-fluoro-N-methyl-anilino]piperidine-2,6-dione]
DC50 (Table 2): < 0.1 µM

The next lines start with the values.

DC50 (Table 1): < 0.1 µM
SMILES: COc1cc(-c2cn(C)c(=O)c(C)c2C)cc(OC)c1CN1CCN(C(=O)CC2CCN(c3ccc(NC4CCC(=O)NC4=O)cc3C(F)(F)F)CC2)CC1 (stereo not shown) [Compound 61]

DC50 (Table 1): < 0.1 µM
SMILES: COc1cc(-c2cn(C)c(=O)c3cnccc23)cc(OC)c1CN1CCC(N2CCN(c3ccc(NC4CCC(=O)NC4=O)cc3C(F)(F)F)CC2)C(F)(F)C1 (stereo not shown) [Compound 185]

DC50 (Table 1): < 0.1 µM
SMILES: COc1cc(-c2cn(C)c(=O)c3cnccc23)cc(OC)c1CN1CCc2cc(C3CCN(c4ccc(NC5CCC(=O)NC5=O)cc4C(F)(F)F)CC3)ccc2C1 (stereo not shown) [Compound 231, 3-[4-[4-[2-[[2,6-dimethoxy-4-(2-methyl-1-oxo-2,7-naphthyridin-4-yl)phenyl]methyl]-3,4-dihydro-1H-isoquinolin-6-yl]-1-piperidyl]-3-(trifluoromethyl)anilino]piperidine-2,6-dione]

DC50 (Table 1): < 0.1 µM
SMILES: COc1cc(-c2cn(C)c(=O)c3cnccc23)cc(Cl)c1CN1CCC(N2CCN(c3ccc(NC4CCC(=O)NC4=O)cc3F)CC2)C(F)(F)C1 (single isomer, unassigned) [Compound 178, 3-[4-[4-[1-[[2-chloro-6-methoxy-4-(2-methyl-1-oxo-2,7-naphthyridin-4-yl)phenyl]methyl]-3,3-difluoro-4-piperidyl]piperazin-1-yl]-3-fluoro-anilino]piperidine-2,6-dione]

DC50 (Table 1): < 0.1 µM
SMILES: COc1cc(-c2cn(C)c(=O)c3[nH]ncc23)cc(OC)c1CN1CCN(C(=O)Cc2ccc(-c3ccc(NC4CCC(=O)NC4=O)cc3)cc2)CC1 (stereo not shown) [Compound 167, 3-[4-[4-[2-[4-[[2,6-dimethoxy-4-(6-methyl-7-oxo-1H-pyrazolo[3,4-c]pyridin-4-yl)phenyl]methyl]piperazin-1-yl]-2-oxo-ethyl]phenyl]anilino]piperidine-2,6-dione]

DC50 (Table 1): < 0.1 µM
SMILES: COc1cc(-c2cn(C)c(=O)c3[nH]ncc23)cc(OC)c1CC1CCN(C(=O)CC2CCN(c3ccc(NC4CCC(=O)NC4=O)cc3)CC2)CC1 (stereo not shown) [Compound 159]

DC50 (Table 1): < 0.1 µM
SMILES: COc1cc(-c2cn(C)c(=O)c3[nH]ncc23)cc(OC)c1CN1CCc2c(CC3CCN(c4ccc(NC5CCC(=O)NC5=O)cc4)CC3)cccc2C1 (stereo not shown) [Compound 104, 3-[4-[4-[[2-[[2,6-dimethoxy-4-(6-methyl-7-oxo-1H-pyrazolo[3,4-c]pyridin-4-yl)phenyl]methyl]-3,4-dihydro-1H-isoquinolin-5-yl]methyl]-1-piperidyl]anilino]piperidine-2,6-dione]

DC50 (Table 1): < 0.1 µM
SMILES: COc1cc(-c2cn(C)c(=O)c(C)c2C)cc(Cl)c1CN1CCC(C2CCN(c3ccc(NC4CCC(=O)NC4=O)cc3Cl)CC2)CC1 (stereo not shown) [Compound 76]

DC50 (Table 1): < 0.1 µM
SMILES: COc1cc(-c2cn(C)c(=O)c3cnccc23)cc(Cl)c1CN1CCC(N2CCN(c3ccc(NC4CCC(=O)NC4=O)nc3)CC2)C(F)(F)C1 (stereo not shown) [Compound 194]

DC50 (Table 1): < 0.1 µM
SMILES: COc1cc(-c2cn(C)c(=O)c3cnccc23)cc(Cl)c1CN1CCC(F)(CCC2CCN(c3ccc(NC4CCC(=O)NC4=O)cc3F)CC2)CC1 (stereo not shown) [Compound 152]

DC50 (Table 1): < 0.1 µM
SMILES: Cn1cc(-c2ccc(CN3CCc4c(cccc4CN4CCC(c5ccc(NC6CCC(=O)NC6=O)cc5)C(F)(F)C4)C3)c(OC(F)(F)F)c2)c2cn[nH]c2c1=O (stereo not shown) [Compound 101]

DC50 (Table 1): < 0.1 µM
SMILES: COc1cc(-c2cn(C)c(=O)c3[nH]ncc23)cc(Cl)c1CN1CCN(C(=O)CC2CCN(c3ccc(NC4CCC(=O)NC4=O)cc3F)CC2)CC1 (stereo not shown) [Compound 66]

DC50 (Table 1): < 0.1 µM
SMILES: COc1cc(-c2cn(C)c(=O)c3[nH]ncc23)cc(OC)c1CN1CCN(C(=O)CC2(O)CCN(c3ccc(NC4CCC(=O)NC4=O)cc3C(F)(F)F)CC2)CC1 (stereo not shown) [Compound 68, 3-[4-[4-[2-[4-[[2,6-dimethoxy-4-(6-methyl-7-oxo-1H-pyrazolo[3,4-c]pyridin-4-yl)phenyl]methyl]piperazin-1-yl]-2-oxo-ethyl]-4-hydroxy-1-piperidyl]-3-(trifluoromethyl)anilino]piperidine-2,6-dione]

DC50 (Table 1): < 0.1 µM
SMILES: COc1cc(-c2cn(C)c(=O)c(C)c2C)cc(Cl)c1CN1CCC(F)(C2CCN(c3ccc(NC4CCC(=O)NC4=O)cc3F)CC2)CC1 (stereo not shown) [Compound 245]

DC50 (Table 1): < 0.1 µM
SMILES: COc1cc(-c2cn(C)c(=O)c3[nH]ncc23)cc(OC)c1CN1CCN(CC(=O)N2CCC(c3ccc(NC4CCC(=O)NC4=O)cc3)CC2)CC1 (stereo not shown) [Compound 37, 3-[4-[1-[2-[4-[[2,6-dimethoxy-4-(6-methyl-7-oxo-1H-pyrazolo[3,4-c]pyridin-4-yl)phenyl]methyl]piperazin-1-yl]acetyl]-4-piperidyl]anilino]piperidine-2,6-dione]

DC50 (Table 1): < 0.1 µM
SMILES: COc1cc(-c2cn(C)c(=O)c3cnccc23)cc(Cl)c1C(=O)N1CCC(CCC2CCN(c3ccc(NC4CCC(=O)NC4=O)cc3C(F)(F)F)CC2)CC1 (stereo not shown) [Compound 242]

DC50 (Table 1): < 0.1 µM
SMILES: COc1cc(-c2cn(C)c(=O)c3[nH]ncc23)cc(Cl)c1C(=O)N1CCc2c(CC3CCN(c4ccc(NC5CCC(=O)NC5=O)cc4F)CC3)ccc(F)c2C1 (stereo not shown) [Compound 240]

DC50 (Table 1): < 0.1 µM
SMILES: COc1cc(-c2cn(C)c(=O)c3[nH]ncc23)cc(Cl)c1C(=O)N1CCC(C2CCN(c3ccc(NC4CCC(=O)NC4=O)cc3F)CC2)CC1 (stereo not shown) [Compound 216]

DC50 (Table 1): < 0.1 µM
SMILES: COc1cc(-c2cn(C)c(=O)c3[nH]ncc23)cc(OC)c1CN1CCC(NC(=O)CN2CCC(c3ccc(NC4CCC(=O)NC4=O)cc3)CC2)CC1 (stereo not shown) [Compound 6]

DC50 (Table 1): < 0.1 µM
SMILES: Cc1c(-c2ccc(CN3CCC(C4CCN(c5ccc(NC6CCC(=O)NC6=O)cc5F)CC4)CC3)nc2)cn(C)c(=O)c1C (stereo not shown) [Compound 81]
